Experimental data reported in patent publication US12486246B2, “Replication protein A (RPA)-DNA interaction inhibitors” (THE TRUSTEES OF INDIANA UNIVERSITY, priority 2019, dated 2025).
Converted amounts (≈) assume the structure as drawn.

What was measured:
[1] = system: A2780 epithelial ovarian cancer (EOC) cells; assay: Cell survival, single agent; format: cell-based
Experimental: (§1) Cell survival was determined by CCK-8 viability assay and/or clonogenic survival assay in 96 well plates or 24 well plates, respectively and combination index (CI) analysis of drug-drug interactions determined by Chou-Talalay analysis as we have previously described. • 1) CCK-8 metabolic assay: Cells were plated (2500 cells/well) in 96-well plate and allowed to grow for at least 18 hours in at 37° C. in the presence of 5% CO2 before treatment with inhibitor for 48 hours. CCK-8 solution (Dojindo) was added to 10% of the total media volume and after 1-4 hours of incubation absorbance at 450 nm was determined using BioTek® Synergy™ H1 hybrid multi-mode microplate reader • 2) Clonogenic survival assay: Cells were plated in a 24 well (20,000 cells/well) plate, incubated for at least 18 hours and then treated with inhibitor. […] Images of the stained colonies were captured with a Fuji LAS-3000 CCD system then counted using OpenCFU software. Viability is determined as a percent of vehicle controls and plotted versus drug concentration. • 3) Assessment of synergy via combination index (CI): In the combination index studies, cells (H460 or SKGT4) were treated with RPA inhibitor and Pt/etoposide/bleomycin/taxol/DDR inhibitor alone as well as the combination of both—the inhibitor and the DNA damaging chemotherapeutic agent/DDR inhibitor. […]

[2] = system: GCT27 testicular cancer cells; assay: Cell survival, single agent; format: cell-based
Experimental: as §1

[3] = Aqueous solubility as a function of pH; format: physicochemical; conditions: thermodynamic from solid
Experimental: (§2) Aqueous solubility was determined by suspending compound in un-buffered water with stirring. Insoluble material was removed by sedimentation or filtration and soluble compound quantified by absorbance spectroscopy and LC/MS. pH dependence was determined by suspending compound in 10 mM citrate buffer at pH 4.0 or 10 mM phosphate […] as described above in the description.
(§3) The morpholine ring is commonly introduced into solvent exposed regions as a privileged solubilizing group to improve solubility or pharmacokinetic properties including metabolic stability of a prospective drug scaffold which is exemplified by many FDA approved drugs. Modifications on Ring A had less of an effect than the morpholino modifications at the alkyl carboxylic acid side chain. To determine the effect of pH on solubility, we prepared solution at 1 mM in citrate buffer at pH 4, phosphate buffer at pH 7 and carbonate buffer at pH 9.5.

H460 cells = assay: Caspase 3/7 activation (CellEvent Caspase-3/7 Green); format: cell-based; conditions: 24 hours treatment
Experimental: Apoptosis induction was determined by activation of Caspase 3 and 7 using the CellEvent™ Caspase-3/7 Green Detection Reagent (Invitrogen). H460 cells were plated at […] in black 96 well plates with clear bottoms (Costar) and incubated for 24 hours prior to treatments. Cells were treated with the indicated concentration of compound 43 or cisplatin for 24 hours. The vehicle (DMSO) concentration was held constant at 1% for compound 43 treatments. For caspase 3/7 detection, media was removed and replaced with PBS containing 5% FBS and 2 μM CellEvent™ Caspase-3/7 Green Detection Reagent. Cells were incubated at 37° C./5% CO2 for 1 hour and fluorescence intensity was measured in a BioTek Synergy H1 plate reader (excitation/emission 485/528). Images were captured with an Evos FL2 Auto microscope (Invitrogen) using a 10× objective.

H460 NSCLC cells [4] = assay: Cell survival, CCK-8 metabolic assay, single agent; format: cell-based
Experimental: as §1

[5] = Aqueous solubility in unbuffered water; format: physicochemical; conditions: 43, 44, 45, 46, 47 vs 9, 16, 26, 28, 29 respectively
Experimental: as §2, §3

SKGT-4 EAC cells = assay: Combination index (Chou-Talalay), CCK-8 assay; format: cell-based
Experimental: (§4) Cell survival was determined by CCK-8 viability assay and/or clonogenic survival assay in 96 well plates or 24 well plates, respectively and combination index (CI) analysis of drug-drug interactions determined by Chou-Talalay analysis as we have previously described. • 1) CCK-8 metabolic assay: Cells were plated (2500 cells/well) in 96-well plate and allowed to grow for at least 18 hours in at 37° C. in the presence of 5% CO2 before treatment with inhibitor for 48 hours. CCK-8 solution (Dojindo) was added to 10% of the total media volume and after 1-4 hours of incubation absorbance at 450 nm was determined using BioTek® Synergy™ H1 hybrid multi-mode microplate reader • 2) Clonogenic survival assay: Cells were plated in a 24 well (20,000 cells/well) plate, incubated for at least 18 hours and then treated with inhibitor. After 48 hours of treatment, the cells are re-plated in 10 cm dishes (500 cells/dish) and incubated for 8-10 days to allow colony formation. Plates are washed with PBS, fixed with glutaraldehyde and stained with crystal violet. Images of the stained colonies were captured with a Fuji LAS-3000 CCD system then counted using OpenCFU software. Viability is determined as a percent of vehicle controls and plotted versus drug concentration. • 3) Assessment of synergy via combination index (CI): In the combination index studies, cells (H460 or SKGT4) were treated with RPA inhibitor and Pt/etoposide/bleomycin/taxol/DDR inhibitor alone as well as the combination of both—the inhibitor and the DNA damaging chemotherapeutic agent/DDR inhibitor. The range of treatment was dependent on the IC50 of each inhibitor/drug. If the IC50 was X, then the cells were treated at a range of 0.04× to 5× concentration in a CCK-8 metabolic assay. The kill curves from both the single agent treatments as well as the combination treatment were used in a Chou-Talalay based method to determine the combination index (CI) at different fractions of cells affected.^40 A CI>1.0 indicates antagonism between the two agents, while a CI<1.0 indicates synergy.
(§5) Inhibiting RPA can act synergistically with DNA damaging therapeutics including cisplatin and etoposide (FIG. 4C). In these studies, we used the Chou-Talalay method, which provides a combination index (CI) that quantifies synergistic activity for each drug combination. […] The synergistic activity of compounds described herein with DNA damaging agents may be explained by RPA's role in the DNA damage response and signaling.

H460 NSCLC cells [6] = assay: Combination index (Chou-Talalay), CCK-8 assay; format: cell-based
Experimental: as §4, §5

CCOc1ccc2cc(C3CC(c4ccc(I)cc4)=NN3C(=O)CCCC(=O)NCCCN3CCOCC3)c(Cl)nc2c1 (stereo not drawn) [Compound 43, 5-(5-(2-Chloro-7-ethoxyquinolin-3-yl)-3-(4-iodophenyl)-4,5-dihydro-1H-pyrazol-1-yl)-N-(3-morpholinopropyl)-5-oxopentanamide]
cytotoxicity as compared to H460 NSCLC cells [1]: increased cytotoxicity
cytotoxicity as compared to H460 NSCLC cells [2]: increased cytotoxicity
solubility ([3]; aqueous buffer at pH 9.5, pH 9.5, aqueous buffer): 3.62 ± 2.22 µM (≈ 2.6 µg/mL)
solubility ([3]; aqueous buffer, pH 4, citrate buffer): 21.4 ± 5.49 µM (≈ 15.4 µg/mL)
solubility ([3]; aqueous buffer, pH 7, phosphate buffer): 5.72 ± 2.79 µM (≈ 4.11 µg/mL)
caspase 3 and 7 activation (H460 cells): potently activates caspase 3 and 7
cellular anticancer activity compared to compound 9 (H460 NSCLC cells [4]): increase in cellular anticancer activity
aqueous solubility compared to carboxylic acid counterpart (in words) [5]: increased solubility
synergy with PARP, DNA-PK, ATR and WEE1 inhibitors (SKGT-4 EAC cells; EAC cell model, BMN637, NU7441, VE821, MK1775): effectively synergizes
combination interaction with taxol (SKGT-4 EAC cells; SKGT-4 EAC cells, Chou-Talalay): additive interaction
synergy (combination index) with bleomycin (H460 NSCLC cells [6]): stronger synergy
synergy (combination index) with DNA damaging therapeutics cisplatin and etoposide (H460 NSCLC cells [6]; CI <1.0 = synergy): even greater synergy than either of its predecessors
